Assay results reported in patent US20100273189A1, “NON SEPARATION ASSAYS WITH SELECTIVE SIGNAL INHIBITORS” (BECKMAN COULTER, INC., priority 2009, published 2010).
Where “and” joins values, the source holds several entries; their conditions need not be identical. Identical values can stand only once.

Experiments:
cTnI = cTnI detection via heterogeneous assay; type: biochemical
Experimental: This example describes a method of detecting cTnI (Cardiac Troponin I) using an AK-Abl particle prepared e.g., as set forth in Example 3 and a HRP-Ab2 conjugate prepared e.g., as set forth in Example 4 where Ab2 represents an antibody to cTnI. The effect of ascorbic acid on background signal was investigated.
HRP-Ab2 conjugate suspensions were prepared at 1.0 μg/mL and contained either 0 or 1 mM ascorbic acid. Samples consisted of human serum samples with the indicated mounts of cTnI added or no cTnI as a control. The test procedure consisted of adding 20 μL of 1.0 μg/mL HRP-Ab2 conjugate and 30 μL of MES buffer containing 1 mg/mL BSA and 1 mg/mL MIgG, pH 5.9 to the reaction vessel. Next, 25 μL of patient serum sample was added, followed by 25 μL of 1.0 mg/mL AK-Abl conjugate suspension thereby obtaining 100 μL of total volume in the reaction vessel. After 15.2 minutes, 100 μL of trigger solution A was added to the reaction vessel and the light intensity was recorded on the modified DxI instrument. Chemiluminescence intensity is expressed in Relative Light Units (RLU).

HRP = biological target: T1, HRP (Armoracia rusticana, UniProt P00433); assay: HRP model system on PMMA particles, with and without ascorbic acid; type: biochemical; conditions: 200 μM Ascorbate; for RLU: replicates
T1 construct: purchased Roche Diagnostics, Indianapolis, Ind., USA
T1 sequence (P00433 31-338 limits assumed): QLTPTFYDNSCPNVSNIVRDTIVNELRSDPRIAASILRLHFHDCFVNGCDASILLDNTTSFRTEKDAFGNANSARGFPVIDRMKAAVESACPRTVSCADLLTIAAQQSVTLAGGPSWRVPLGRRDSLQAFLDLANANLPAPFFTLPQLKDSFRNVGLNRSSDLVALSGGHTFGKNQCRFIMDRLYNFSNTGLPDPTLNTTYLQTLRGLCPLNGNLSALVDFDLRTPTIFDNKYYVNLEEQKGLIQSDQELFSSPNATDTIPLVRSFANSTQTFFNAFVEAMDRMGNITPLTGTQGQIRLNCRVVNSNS
Experimental: In order to further investigate the effect of specific solid phase particles on the assays described herein, a comparison of a variety of particle types was conducted, including silica, polymethylmethacrylate (PMMA). Carboxyl modified PMMA particles (PolyAn GmbH, Berlin) were labeled with AK and biotin as described in Example 3, followed by coating with streptavidin. Silica particles were reacted with 3-aminopropylsiloxane in 1 mM acetic acid to provide an amine reactive group. The amine functional groups were reacted with AK-3 and biotin-LC-sulfoNHS, followed by coating with streptavidin.
Signal generation with Silica and PMMA particles. Assays using the HRP model system, as generally described in Example 1, were conducted on silica particles and PMMA particles, with and without ascorbic acid in the reaction mixture. The assays were run on a modified DxI instrument as described above. The assay conditions consisted of combining 45 μL BUFFER II (with or without ascorbic acid), 25 μL of particle suspension, and 15 μL of sample and incubating for 30 min. Then 100 μL of trigger solution A was added to the reaction vessel and the light intensity was recorded.

[1] = with ascorbic acid, S1, cTnI 172 pg/mL
[2] = with ascorbic acid, S2, cTnI 366 pg/mL
[3] = with ascorbic acid, S3, cTnI 1368 pg/mL
[4] = with ascorbic acid, S4, cTnI 11136 pg/mL
[5] = with ascorbic acid, S5, cTnI 27922 pg/mL
[6] = with ascorbic acid, S6, cTnI 106000 pg/mL

Q: Which results are given for `O=C1O[C@H]([C@@H](O)CO)C(O)=C1O` [Ascorbic Acid, Ascorbic acid]?
A: background signal (cTnI; in the presence of ascorbic acid, in words): significant reduction in background signal; RLU (cTnI; second column pair (with 1 mM ascorbic acid in conjugate), S0, cTnI 0 pg/mL): 422 RLU; RLU (cTnI; [1]): 1320 RLU; S/S0 (cTnI; [1]): 3.1; RLU (cTnI; [2]): 2778 RLU; S/S0 (cTnI; [2]): 6.6; RLU (cTnI; [3]): 10254 RLU; S/S0 (cTnI; [3]): 24.3; RLU (cTnI; [4]): 108628 RLU; S/S0 (cTnI; [4]): 257.4; RLU (cTnI; [5]): 325082 RLU; S/S0 (cTnI; [5]): 770.3; RLU (cTnI; [6]): 2380772 RLU; S/S0 (cTnI; [6]): 5641.6; Mean RLU (HRP; HRP 0 ng/ml): 20,135 RLU; S/S0 (HRP; HRP 0 ng/ml): 1.0; RLU (HRP; HRP 0 ng/ml): 20,656 RLU and 19,436 RLU and 20,312 RLU; Mean RLU (HRP; HRP 1 ng/ml): 118,472 RLU; S/S0 (HRP; HRP 1 ng/ml): 5.9; RLU (HRP; HRP 1 ng/ml): 116,596 RLU and 116,308 RLU and 122,512 RLU; Mean RLU (HRP; HRP 10 ng/ml): 2,061,780 RLU; S/S0 (HRP; HRP 10 ng/ml): 102.4; RLU (HRP; HRP 10 ng/ml): 2,066,824 RLU and 2,171,080 RLU and 1,947,436 RLU; Mean RLU (HRP; HRP 100 ng/ml): 12,093,261 RLU; S/S0 (HRP; HRP 100 ng/ml): 600.6; RLU (HRP; HRP 100 ng/ml): 12,257,256 RLU and 11,862,048 RLU and 12,160,480 RLU; Mean RLU (HRP; HRP 250 ng/ml): 12,565,744 RLU; S/S0 (HRP; HRP 250 ng/ml): 624.1; RLU (HRP; HRP 250 ng/ml): 12,575,032 RLU and 12,552,012 RLU and 12,570,188 RLU
